Entries after “also recorded” stand apart in the source; their conditions may differ.
Experiments:
[1] = test system: plasma miRNAs; assay: Real-time PCR of plasma miRNAs, 4% NaCl diet (Example 1); type: in vivo, rat
Text: Detection of miRNAs in plasma during various disease settings is showing increasing diagnostic promise (Cortez M A and Calin G A (2009) Expert Opin Biol Ther. 9, 703-711). To determine whether there is a specific miRNA that correlates with antimiR-208a efficacy, we examined a panel of muscle related miRNAs during HS treatment.
RNA from plasma samples was isolated using Trizol LS Reagent (Invitrogen), using the manufacturer's protocol. Prior to RNA isolation, […] of two different synthetic C. elegans miRNA sequences were added to serve as internal controls for normalization of target miRNAs. The C. elegans sequences used were cel-miR-2 ([…], SEQ ID NO:5), and cel-lin-4 ([…]; SEQ ID NO:6) (Dharmacon). The final RNA pellet was re-suspended in a final volume equal to the initial plasma volume and 5 μl was used for subsequent RT-PCR reactions, as described above.

[2] = test system: Dahl salt-sensitive rats; assay: Dahl salt-sensitive rat model, 6% NaCl diet: body weight and survival (Example 3); type: in vivo

M-10101: antimiR targeting bases 2 to 17 of mature miR-208a, LNA and DNA linked by phosphorothioate bonds; 5′-CTTTTTGCTCGTCTTA-3′ (SEQ ID NO: 12) (all phosphorothioate, sugars by position and methylation of C not given here; LNA/DNA mixmer; listed as Homo sapiens)
Plasma miR-499 ([1]; 8 weeks after start of 4% HS diet, 7 weeks after onset of antimiR treatment, listed as antimiR-208a): significantly reduced; also recorded: significantly lowers
Plasma miR-423-5p ([1]; 8 weeks after start of 4% HS diet, listed as antimiR-208a): reduced; also recorded: decrease
Plasma miR-1 ([1]; Dahl hypertensive rats): no response
Plasma miR-208a ([1]; Dahl hypertensive rats): no response
Survival (Kaplan-Meier) ([2]; M-10101 25 mg/kg sc every 2 weeks, water po, 25 mg/kg): significantly improved survival; also recorded: No mortality was observed
Body weight ([2]; oligonucleotide 25 mg/kg sc every 2 weeks): partially prevented the body weight loss
